System: HTLV-1
Test: Inhibition of HTLV-1: Tax-1 protein expression by western blotting in HUT102 cells
Type: cell-based, Human T-lymphotropic virus (HTLV)
Conditions: HUT102 (HTLV-1 chronically infected) cells, 10 μM daily for three days; western blot, normalised by tubulin, related to DMSO treated cells; triplicate
Experimental: To determine whether the compounds described above could act as HTLV inhibitors, a screen was performed on HUT102 (HTLV-1 chronically infected) cells.
Cells were plated at a density of 150 000 cells per well in 96 wells plates and treated daily with 10 μM of compounds for three days.
Cells were then harvested and an aliquot was used for cytotoxicity evaluation with Cell Titer (Promega).
The remaining cells was washed in phosphate buffer saline (PBS) and lysed for protein quantification with Bradford Assay (Sigma).
Then, HTLV Tax-1 protein expression was evaluated from 30 μg of total proteins by western blotting analysis.
Tax-1 expression was normalised by tubulin expression and related to control (DMSO treated) cells. Each compound was tested in triplicate.

COc1ccc(Nc2ccc3c(N4CCN(C)CC4)ccnc3c2)cc1 [Compound 166, N-(4-methoxyphenyl)-4-(4-methylpiperazin-1-yl)quinolin-7-amine]
reduced Tax-1 expression when compared to control: 80%
